{
  "source": "patent US6489302B1",
  "about": "“Saccharide conjugates” (Deutches Krebsforschungszentrum Stiftung Des Offentlichen …, priority 1995, dated 2002)",
  "key": {"[1]": {"assay": "Whole-body autoradiography of the 14C-labeled conjugate in rats after i.v. injection (organ distribution)", "format": "in vivo, rat", "procedure": "(§1) This conjugate was labeled with ^14C according to common methods and used for the following treatment of rats.\n(§2) The rats used were female Sprague-Dawley rats (SD rats; obtainable from Charles River Wiga, Sulzfeld, Germany) and male Copenhagen rats (obtainable from Harlan Sprague Dawley, Ind., U.S.A.).\n(§3) Groups of 5 healthy SD rats were given i.v. injections of 315 mg/kg β-D-Glc-IMP and 56.2 mg/kg of β-D-Glc-IMP, respectively. 5 of the tumor-bearing Copenhagen rats were given 315 mg/kg of β-D-Glc-IMP. The radioactive dose per injection was about 20 μCi. One animal of every group was killed with CO2 10 minutes, 1 hours, 2 hours, 8 hours and 24 hours, respectively, after the administration of the injection. The tissues of the rats were prepared for a common microtome preparation and the sections were subjected to autoradiography as described by Ullberg, S., (1977), in: Alvefeldt, O. (ed.) Special issue on whole-body autoradiography. Science Tools, Bromma, Sweden, p. 2)."}, "[2]": {"assay": "Applicant's finding: side-effects", "details": "as compared to cyclophosphoramide and isophosphoramide"}, "tumor": {"system": "tumor", "assay": "Applicant's finding: anti-tumor properties"}, "[3]": {"system": "Dunning prostate tumor tissue", "assay": "Whole-body autoradiography of the 14C-labeled conjugate in tumor-bearing Copenhagen rats", "format": "in vivo, rat", "details": "Copenhagen rats with transplanted Dunning prostate tumor, 315 mg/kg i.v.", "source_text": "as §1, §2\nFresh pieces (2×2 mm) of Dunning prostate tumor tissue were transplanted into the Copenhagen rats. The tumors were allowed to grow for about one week until they were well palpable but not yet necrotic.\nas §3"}},
  "data": [
    {"compound": "O=P(NCCCl)(NCCCl)OC1OC(CO)C(O)C(O)C1O", "note": "[β-D-Glc-IMP, β-D-Glucosylisophosphoramide]", "values": [
      {"measurement": "accumulation in organs, particularly the liver, kidneys, thymus and thyroid gland", "setting": "[1]; 10 minutes after i.v. injection, 315 mg/kg or 56.2 mg/kg", "result": "accumulated in organs"},
      {"measurement": "presence in central nervous system, including the brain", "setting": "[1]; 8 hours after i.v. injection", "result": "contained the conjugate"},
      {"measurement": "side-effects", "setting": "[2]", "result": "extremely low side-effects"},
      {"measurement": "anti-tumor properties", "setting": "tumor", "result": "good anti-tumor properties"},
      {"measurement": "accumulation in tumor tissue", "setting": "[3]", "result": "strong accumulation"}
    ]}
  ]
}
